Values quoted from earlier work as cited in patent US11452288B1, “Innocuous sterilant using hemocyanin and functionalized fullerenes with broad-spectrum intracellular and interstitial microbiocidal and radical scavenging effects for packaged matter, biologics and organics including liquids, gases, tissue, organs, cells, and limbs with copper mediated oxygenation …” (priority 2022, dated 2022).

Assays:
[1] = tested on: fungal donor rim cultures; conditions: additive to Optisol-GS, compared with Optisol-GS alone
endothelial = conditions: optimal antifungal concentrations in the nutrient media

SMILES	rate of positive fungal donor rim cultures [1]	endothelial toxicity (endothelial)
C[C@@H](c1ncncc1F)[C@](O)(Cn1cncn1)c1ccc(F)cc1F [voriconazole]	significant reduction	
C[C@@H]1[C@H](O)[C@@H](C)/C=C/C=C/C=C/C=C/C=C/C=C/C=C/[C@H](O[C@@H]2O[C@H](C)[C@@H](O)[C@H](N)[C@@H]2O)C[C@@H]2O[C@](O)(C[C@@H](O)C[C@@H](O)[C@H](O)CC[C@@H](O)C[C@@H](O)CC(=O)O[C@H]1C)C[C@H](O)[C@H]2C(=O)O [Amphotericin B]		significant endothelial toxicity
